pEC50: −log10 of the molar value.
Legend:
[1] = Selectivity index, ratio of CC50 for cytotoxicity against human MRC5 cells to EC50 for Trypanosoma cruzi Tulahuen CL2 amastigotes expressing beta galactosidase infected in human MRC5 cells; type: toxicity, cell-based; settings: read-out: Ratio CC50/EC50
[2] = Metabolic stability in mouse liver microsomes S9 fraction assessed as CYP450-mediated metabolism by measuring parent compound remaining measured after 30 mins in presence of NADPH; type: ADME, subcellular; settings: read-out: Stability
[3] = Metabolic stability in mouse liver microsomes S9 fraction assessed as UGT-mediated metabolism by measuring parent compound remaining measured after 15 mins in presence of NADPH; type: ADME, subcellular; settings: read-out: Stability
Leishmania infantum [4] = test: (§1) Antileishmanial activity against sodium stibogluconate and potassium antimonyl tartrate resistant intracellular Leishmania infantum MHOM/FR/96/LEM3323-CI4 promastigotes infected in Swiss mouse peritoneal macrophages assessed as inhibition of parasite growth measured after 96 hrs by microscopic analysis; type: functional, organism-based; settings: MHOM/FR/96/LEM3323-CI4, Peritoneal macrophage
[5] = molecular target: T1, UDP-glucuronosyltransferases (UGTs) (Homo sapiens, UniProt O60656+O75310+O75795+P06133+P0DTE4+P0DTE5+P16662+P19224+P22309+P22310+P35503+P35504+P36537+P54855+Q6UWM9+Q9BY64+Q9HAW7+Q9HAW8+Q9HAW9); test: Metabolic stability in human liver microsomes S9 fraction assessed as UGT-mediated metabolism by measuring parent compound remaining measured after 60 mins in presence of NADPH; type: ADME, subcellular; settings: read-out: Stability
[6] = molecular target: T1, UDP-glucuronosyltransferases (UGTs); test: Metabolic stability in human liver microsomes S9 fraction assessed as UGT-mediated metabolism by measuring parent compound remaining measured after 30 mins in presence of NADPH; type: ADME, subcellular; settings: read-out: Stability
Leishmania infantum [7] = test: as §1, with “stibogluconate,” for “stibogluconate and”, “tartrate and PMM” for “tartrate”, “MHOM/FR/96/LEM3323-CI4 PMM” for “MHOM/FR/96/LEM3323-CI4”; type: functional, organism-based; settings: Peritoneal macrophage
[8] = Metabolic stability in golden hamster liver microsomes S9 fraction assessed as CYP450-mediated metabolism by measuring parent compound remaining measured after 15 mins in presence of NADPH; type: ADME, subcellular, Mesocricetus auratus; settings: read-out: Stability
[9] = Cytotoxicity against human MRC5 cells assessed as reduction in cell viability incubated for 3 days by resazurin dye based fluorescence analysis; type: toxicity; settings: time 3 day
[10] = Metabolic stability in mouse liver microsomes S9 fraction assessed as CYP450-mediated metabolism by measuring parent compound remaining measured after 15 mins in presence of NADPH; type: ADME, subcellular; settings: read-out: Stability
[11] = Selectivity index, ratio of CC50 for Cytotoxicity against Swiss mouse peritoneal macrophages to EC50 for intracellular Leishmania infantum MHOM/MA(BE)/67 ITMAP263 amastigotes infected in Swiss mouse peritoneal macrophages; type: toxicity, cell-based; settings: read-out: Ratio CC50/EC50
Cytochrome P450 [12] = molecular target: T2, Cytochrome P450 (Homo sapiens, UniProt P04798+P05177+P05181+P08684+P10632+P10635+P11509+P11712+P13584+P20813+P20815+P20853+P24462+P24903+P33260+P33261+P51589+P78329+P98187+Q02928+Q08477+Q16678+Q16696+Q5TCH4+Q6VVX0+Q7Z449+Q8TAV3+Q96SQ9+Q9HB55); test: Metabolic stability in human liver microsomes S9 fraction assessed as CYP450-mediated metabolism by measuring parent compound remaining measured after 30 mins in presence of NADPH; type: ADME, subcellular; settings: read-out: Stability
[13] = Metabolic stability in golden hamster liver microsomes S9 fraction assessed as UGT-mediated metabolism by measuring parent compound remaining measured after 60 mins in presence of NADPH; type: ADME, subcellular, Mesocricetus auratus; settings: read-out: Stability
[14] = Metabolic stability in mouse liver microsomes S9 fraction assessed as CYP450-mediated metabolism by measuring parent compound remaining measured after 60 mins in presence of NADPH; type: ADME, subcellular; settings: read-out: Stability
[15] = Cytotoxicity against Swiss mouse peritoneal macrophages assessed as reduction in cell viability measured after 5 days by microscopic analysis; type: toxicity, cell-based, Peritoneal macrophage; settings: time 5 day
Cytochrome P450 [16] = molecular target: T2, Cytochrome P450; test: Metabolic stability in human liver microsomes S9 fraction assessed as CYP450-mediated metabolism by measuring parent compound remaining measured after 60 mins in presence of NADPH; type: ADME, subcellular; settings: read-out: Stability
[17] = Metabolic stability in mouse liver microsomes S9 fraction assessed as UGT-mediated metabolism by measuring parent compound remaining measured after 30 mins in presence of NADPH; type: ADME, subcellular; settings: read-out: Stability
[18] = Metabolic stability in golden hamster liver microsomes S9 fraction assessed as CYP450-mediated metabolism by measuring parent compound remaining measured after 60 mins in presence of NADPH; type: ADME, subcellular, Mesocricetus auratus; settings: read-out: Stability
Trypanosoma cruzi = test: Antitrypanosomal activity against nifurtimox-sensitive Tulahuen CL2 amastigotes expressing beta galactosidase infected in human MRC5 cells assessed as inhibition of parasite growth using chlorophenol red beta-D-galactopyranoside as substrate and measured after 7 days by spectrophotometric analysis; type: functional, organism-based; settings: Tulahuen CL2, MRC5, 168 h, read-out: EC50
[19] = Metabolic stability in golden hamster liver microsomes S9 fraction assessed as UGT-mediated metabolism by measuring parent compound remaining measured after 15 mins in presence of NADPH; type: ADME, subcellular, Mesocricetus auratus; settings: read-out: Stability
Leishmania infantum [20] = test: Antileishmanial activity against intracellular Leishmania infantum MHOM/MA(BE)/67 ITMAP263 amastigotes infected in Swiss mouse peritoneal macrophage assessed as inhibition of parasite growth measured after 5 days by geimsa staining based microscopic analysis; type: functional, organism-based; settings: MHOM/MA(BE)/67 ITMAP263, Peritoneal macrophage, 120 h
Cytochrome P450 [21] = molecular target: T2, Cytochrome P450; test: Metabolic stability in human liver microsomes S9 fraction assessed as CYP450-mediated metabolism by measuring parent compound remaining measured after 15 mins in presence of NADPH; type: ADME, subcellular; settings: read-out: Stability
Leishmania infantum [22] = test: as §1, with “stibogluconate,” for “stibogluconate and”, “tartrate and MIL” for “tartrate”, “MHOM/FR/96/LEM3323-CI4 MIL5C13” for “MHOM/FR/96/LEM3323-CI4”; type: functional, organism-based; settings: MHOM/FR/96/LEM3323-CI4 MIL5C13, Peritoneal macrophage
[23] = molecular target: T1, UDP-glucuronosyltransferases (UGTs); test: Metabolic stability in human liver microsomes S9 fraction assessed as UGT-mediated metabolism by measuring parent compound remaining measured after 15 mins in presence of NADPH; type: ADME, subcellular; settings: read-out: Stability
[24] = Metabolic stability in golden hamster liver microsomes S9 fraction assessed as CYP450-mediated metabolism by measuring parent compound remaining measured after 30 mins in presence of NADPH; type: ADME, subcellular, Mesocricetus auratus; settings: read-out: Stability
[25] = Metabolic stability in mouse liver microsomes S9 fraction assessed as UGT-mediated metabolism by measuring parent compound remaining measured after 60 mins in presence of NADPH; type: ADME, subcellular; settings: read-out: Stability
[26] = Metabolic stability in golden hamster liver microsomes S9 fraction assessed as UGT-mediated metabolism by measuring parent compound remaining measured after 30 mins in presence of NADPH; type: ADME, subcellular, Mesocricetus auratus; settings: read-out: Stability
Leishmania infantum [27] = test: Antileishmanial activity against intracellular Leishmania infantum MHOM/MA(BE)/67 amastigotes infected in golden hamster assessed as reduction of amastigote burdens in spleen at 40 mg/kg, po SID for 5 days by geimsa staining based microscopic analysis; type: functional; set-up: scale not given: the % may be the effect or the level left; settings: time 5 day
Leishmania infantum [28] = test: Antileishmanial activity against intracellular Leishmania infantum MHOM/MA(BE)/67 amastigotes infected in golden hamster assessed as reduction of amastigote burdens in liver at 40 mg/kg, po SID for 5 days by geimsa staining based microscopic analysis; type: functional; set-up: scale not given: the % may be the effect or the level left; settings: time 5 day
Leishmania infantum [29] = test: Antileishmanial activity against intracellular Leishmania infantum MHOM/MA(BE)/67 amastigotes infected in golden hamster assessed as reduction of amastigote burdens in bone marrow at 40 mg/kg, po SID for 5 days by geimsa staining based microscopic analysis; type: functional; set-up: scale not given: the % may be the effect or the level left; settings: time 5 day

For `Cc1ncnc2c1c(-c1ncccc1Cl)cn2[C@@H]1O[C@H](CO)[C@@H](O)[C@H]1O`, the selectivity ratio [1] was greater than 91, the remaining at 0.5 h [2] was 83% and the remaining at 0.25 h [3] was 92%. It also gave a pEC50 (Leishmania infantum [4]) of 6.17, a remaining at 1 h [5] of 101% and a remaining at 0.5 h [6] of 95%. For the same molecule, the pEC50 (Leishmania infantum [7]) was 5.84, the remaining at 0.25 h [8] was 86% and the CC50 at 72 h [9] was greater than 64000 nM. It also gave a remaining at 0.25 h [10] of 98%, a selectivity ratio [11] greater than 50 and a remaining at 0.5 h (Cytochrome P450 [12]) of 100%. The remaining at 1 h [13] was 96%, the remaining at 1 h [14] was 74% and the CC50 at 120 h [15] was greater than 64000 nM. For the same molecule, the remaining at 1 h (Cytochrome P450 [16]) was 99%, the remaining at 0.5 h [17] was 91% and the remaining at 1 h [18] was 90%. The pEC50 (Trypanosoma cruzi) was 6.15, the remaining at 0.25 h [19] was 95% and the pEC50 (Leishmania infantum [20]) was 5.92. For the same molecule, the remaining at 0.25 h (Cytochrome P450 [21]) was 107%, the pEC50 (Leishmania infantum [22]) was 6.14 and the remaining at 0.25 h [23] was 93%. For the same molecule, the remaining at 0.5 h [24] was 98%, the remaining at 1 h [25] was 98% and the remaining at 0.5 h [26] was 96%.

Work on `CCCCCCCCCCCCCCCCOP(=O)([O-])OCC[N+](C)(C)C` [MILTEFOSINE] yielded an Activity (Leishmania infantum [27]) of 99.2%, an Activity (Leishmania infantum [28]) of 94% and an Activity (Leishmania infantum [29]) of 93.1%. For the same molecule, the pEC50 (Leishmania infantum [20]) was 5.08.

Source: ChEMBL document CHEMBL5120865, “Exploration of 6-methyl-7-(Hetero)Aryl-7-Deazapurine ribonucleosides as antileishmanial agents” (Eur J Med Chem, 2022)
